In patent US20250352529A1, “COMBINED USE OF M1 MUSCARINIC RECEPTOR AGONISTS AND M3 MUSCARINIC RECEPTOR ANTAGONISTS TO TREAT CANCER” (The United States Government As Represented By The …, priority 2024, published 2025):
Where two headings read alike, the source gives them in different places.

Key:
H508 human CRC cells = experiment: WST-1 cell proliferation assay, H508 cells; format: cell-based; conditions: for change in cell proliferation: trospium 5-50 μM; for effect of antagonist preincubation on xanomeline dose-response curve (proliferation): trospium 50 μM, darifenacin 30 and 60 μM; for IC50: Homo sapiens, read-out: half-maximal inhibitory concentration (IC50), cell proliferation
Protocol: (§1) FIG. 6A) Treating H508 cells for 5 days with carbachol (carb), a non-selective muscarinic receptor agonist stimulates cell proliferation measured using the WST-1 Cell Proliferation Assay (Roche). Cont, control; Carb, carbachol. Solid black circles represent values for individual replicates. […] Cells were incubated with or without agents for 5 days. N=4. FIG. 6D). Maximal proliferation responses observed with increasing concentrations of McN-A-343 in H508 (square), HT-29 (triangle), and HCT116 (circle) human CRC cells. Cells were incubated with agents for 5 days. Dose-response curves created by nonlinear regression (GraphPad Prism).
(§2) Human colon cancer cell lines (H508, HCT116) were grown in complete culture medium in a 37° C. incubator with 5% CO2 and sub-cultured weekly. H508 or HCT116 cells were seeded in 96-well plates, allowed to adhere for 24 h and changed to serum-free culture medium. Cells were treated for 5 days with Xanomeline, a selective M1R agonist, and were pre-incubated for 30 min with Darifenacin, a selective M3R antagonist or Trospium, a non-selective MR antagonist. Cell proliferation and cytotoxicity were measured using the WST-1 and LDH colorimetric assays, respectively. Absorbance was measured at 440 nm and 490/680 nm, respectively, using a computer-interfaced plate reader.

H508 CRC cells = experiment: LDH release cytotoxicity assay; format: cell-based, human; conditions: increasing doses of xanomeline +/− 30 or 60 μM darifenacin
Protocol: FIG. 7A-B show combining a selective M3R inhibitor (darifenacin) with an M1R-selective activator potentiates inhibition of cell proliferation without cell injury. […] Triton X-100 was the positive control for LDH release. Symbols represent means+/−SEM of 3-9 replicates.
To exclude cell toxicity with these drug concentration, cellular release of lactate dehydrogenase (LDH) was measured.
as §2

HCT116 human CRC cells = experiment: WST-1 cell proliferation assay, HCT116 cells; format: cell-based
Protocol: as §1, §2

HT-29 human CRC cells = experiment: WST-1 cell proliferation assay, HT-29 cells; format: cell-based; conditions: HT-29 cells (CHRM1:3-low), 5 days; read-out: half-maximal effective concentration (EC50) for inhibition of CRC cell proliferation
Protocol: as §1

[1] = H508 cells, 5 days, agent alone
[2] = NCI-H508, 120 h, H508 cells, agent alone, 5 days

SMILES | change in cell proliferation (H508 human CRC cells; [1]) | effect of antagonist preincubation on xanomeline dose-response curve (proliferation) (H508 human CRC cells; H508 cells) | IC50 (H508 human CRC cells; [2]) [µM] | also measured
O=C(O[C@H]1C[C@H]2CC[C@@H](C1)[N+]21CCCC1)C(O)(c1ccccc1)c1ccccc1 [trospium, Trospium] | did not alter cell proliferation | did not shift |  | 
NC(=O)C(c1ccccc1)(c1ccccc1)[C@@H]1CCN(CCc2ccc3c(c2)CCO3)C1 [darifenacin, Darifenacin] |  | shifted the xanomeline dose-response curve progressively leftward | 84 | 
CCCCCCOc1nsnc1C1=CCCN(C)C1 [xanomeline, Xanomeline] | robustly and dose-dependently attenuated cell proliferation |  | 32.8 | cell LDH leakage (H508 CRC cells): No cell LDH leakage was detected; IC50 (H508 human CRC cells; NCI-H508, H508 cells, xanomeline plus 30 μM darifenacin): 21.6 µM; IC50 (H508 human CRC cells; NCI-H508, H508 cells, xanomeline plus 60 μM darifenacin): 18.7 µM; inhibition of cell proliferation compared to H508 cells (HCT116 human CRC cells; HCT116 cells, increasing xanomeline concentrations): attenuated at lower xanomeline concentrations
C[N+](C)(C)CCOC(N)=O [carbachol, Carbachol] | two-fold increase in cell proliferation |  |  | 
C[N+](C)(C)CC#CCOC(=O)Nc1cccc(Cl)c1.[Cl-] [McN-A-343] | robustly and dose-dependently attenuated cell proliferation |  |  | EC50 (H508 human CRC cells; H508 cells (CHRM1:3-low), 5 days, read-out: half-maximal effective concentration (EC50) for inhibition of CRC cell proliferation): 137 µM; EC50 (HT-29 human CRC cells): 548 µM; EC50 (HCT116 human CRC cells; HCT116 cells (CHRM1:3-high), 5 days, read-out: half-maximal effective concentration (EC50) for inhibition of CRC cell proliferation): 7.89 µM
